Assay results as given in US20250263440A1, “CD38-BINDING AGENTS AND USES THEREOF” (PeptiDream Inc., priority 2019, published 2025).
Starred links: 1 amine or outer side, 2 acyl side, 3 side chain; linkers in the order of their positions; H or OH if unused. Positions of bridges follow the written chain, without caps; N, C: chain ends. Non-standard residues stand in square brackets, D forms with d. Residues, ends and D or L forms follow the SMILES beside them. *: point of attachment. Ala(2-NH2-4-pyridyl) = Nc1cc(C[C@H](N)C(=O)O)ccn1; Bip = N[C@@H](Cc1ccc(-c2ccccc2)cc1)C(=O)O; Arg(Me2a) = CN(C)C(=N)NCCC[C@H](N)C(=O)O; Nle(6-Ph) = N[C@@H](CCCCc1ccccc1)C(=O)O; X3 = CCCCCCCCC[C@H](N[*:1])C(=O)[*:2]; Met(O2) = CS(=O)(=O)CC[C@H](N)C(=O)O; hArg = N=C(N)NCCCC[C@H](N)C(=O)O; Ahp(2) = CCCCC[C@H](N)C(=O)O; hSer = N[C@@H](CCO)C(=O)O; X1 = COCCOCCOCCOCCC(=O)*

Target: His-tagged CD38 (Homo sapiens, UniProt P28907)
Test: SPR assay (Biacore S200, Sensor Chip NTA, single-cycle kinetics) of SEQ ID NO.1 variants against His-tagged CD38
Format: binding
Details: for kon / koff: SPR Biacore S200, NTA chip, His-tagged CD38; for kon: read-out: Ka (association rate constant); for koff: read-out: Kd (dissociation rate constant); for Kd: SPR Biacore S200, His-tagged CD38, calculated from ka and kd
Experimental: SPR assay was performed using Biacore S200 (Cytiva: Former GE Healthcare).
After the equilibration of Series S Sensor Chip NTA (produced by Cytiva: Former GE Healthcare) with Running Buffer (10 mM HEPES pH7.4, 150 mM NaCl, 0.05% Tween 20), followed by injection of 350 mM EDTA at a flow rate of 10 L/min for 60 seconds and […] NiCl2 at a flow rate of 10 L/min for 60 seconds, then 3 mM EDTA at a flow rate of 10 L/min for 120 seconds, sequently, to wash the sensor chip.
EDC/NHS mixture was injected at a flow rate of […] for 7 minutes to thereby activate the functional groups on sensor chip. His-tagged CD38 in Running Buffer (10 mM HEPES pH7.4, 150 mM NaCl, 0.05% Tween 20) was injected immobilized to at a flow rate of […]. For 7 minutes to immobilize the CD38 on the substrate surfaces of the sensor chip. Then Ethanolamine was injected at a flow rate of […] for 7 minutes.
1.0 M Ethanolamine(aq.) was injected at a flow rate of 10 L/min for 420 seconds for capping. 10 mM peptides (which were synthesised described above) in DMSO were diluted to obtain 10 uM with Running Buffer, and prepared 100 nM, 50 nM, 25 nM, 10 nM, 5 nM of each peptide's solutions (Peptide Samples).
Using these Peptide Samples, kinetics of peptides against His-tagged CD38 was measured. The method adopted for sample measurement was a single-cycle kinetics method. The analysis was conducted using the evaluation software 1.1 provided with Biacore S200. A DMSO correction curve obtained by solvent correction measurements was applied for the analysis. Kinetics fitting was done on the difference data obtained by subtracting the baseline data from sample measurement data.
KD values were calculated based on the association rate constant (ka) and dissociation rate constant (kd).

CCCCCCCCC[C@@H]1NC(=O)[C@H](Cc2ccc(-c3ccccc3)cc2)NC(=O)[C@H](CC(C)C)NC(=O)[C@H](C(C)C)NC(=O)[C@H](CCC(=O)O)NC(=O)[C@H](CC(=O)O)NC(=O)[C@H](Cc2c[nH]cn2)NC(=O)[C@H](Cc2ccc(O)cc2)NC(=O)[C@H](CCCCC)NC(=O)[C@H](CCCNC(=N)N)NC(=O)[C@H](C)NC(=O)CSC[C@@H](C(N)=O)NC(=O)[C@H](CC(=O)O)NC1=O [compound 24] ({CH2CO}-AR[Ahp(2)]YHDEVL[Bip][X3]DC-NH2; thioether N-13 (inferred); N-terminus and C-terminus assumed) was tested, and the kon was 370000 M⁻¹ s⁻¹ and the koff was 0.0013 s⁻¹.

CCCCC[C@@H]1NC(=O)[C@H](CCCNC(=N)N)NC(=O)[C@H](C)NC(=O)CSC[C@@H](C(N)=O)NC(=O)[C@H](CC(=O)O)NC(=O)[C@H](CCCCC)NC(=O)[C@H](Cc2ccc(-c3ccccc3)cc2)NC(=O)[C@H](CC(C)C)NC(=O)[C@H](C(C)C)NC(=O)[C@H](CCS(C)(=O)=O)NC(=O)[C@H](CC(=O)O)NC(=O)[C@H](Cc2c[nH]cn2)NC(=O)[C@H](Cc2ccc(O)cc2)NC1=O [compound 6] ({CH2CO}-AR[Ahp(2)]YHD[Met(O2)]VL[Bip][Ahp(2)]DC-NH2; thioether N-13) showed a Kd of 2.94 nM, a kon of 631000 M⁻¹ s⁻¹ and a koff of 0.00186 s⁻¹.

Compound CCCCC[C@@H]1NC(=O)[C@H](CCCNC(=N)N)NC(=O)[C@H](C)NC(=O)CSC[C@@H](C(N)=O)NC(=O)[C@H](CC(=O)O)NC(=O)[C@H](CCCCC)NC(=O)[C@H](Cc2ccc(-c3ccccc3)cc2)NC(=O)[C@H](CCS(C)(=O)=O)NC(=O)[C@H](C(C)C)NC(=O)CNC(=O)[C@H](CC(=O)O)NC(=O)[C@H](Cc2c[nH]cn2)NC(=O)[C@H](Cc2ccc(O)cc2)NC1=O [compound 9] ({CH2CO}-AR[Ahp(2)]YHDGV[Met(O2)][Bip][Ahp(2)]DC-NH2; thioether N-13 (inferred); N-terminus and C-terminus assumed) has a kon of 664000 M⁻¹ s⁻¹ and a koff of 0.00627 s⁻¹.

CCCCC[C@@H]1NC(=O)[C@H](CCCCNC(=O)CCOCCOCCOCCOC)NC(=O)[C@H](C)NC(=O)CSC[C@@H](C(N)=O)NC(=O)[C@H](CC(=O)O)NC(=O)[C@H](CCCCC)NC(=O)[C@H](Cc2ccc(-c3ccccc3)cc2)NC(=O)[C@H](CC(C)C)NC(=O)[C@H](C(C)C)NC(=O)[C@H](CCC(=O)O)NC(=O)[C@H](CC(=O)O)NC(=O)[C@H](Cc2c[nH]cn2)NC(=O)[C@H](Cc2ccc(O)cc2)NC1=O [compound 18] ({CH2CO}-AK(X1)[Ahp(2)]YHDEVL[Bip][Ahp(2)]DC-NH2; thioether N-13) showed a Kd of 27.7 nM, a kon of 220000 M⁻¹ s⁻¹ and a koff of 0.006 s⁻¹.

For CCCCC[C@@H]1NC(=O)[C@H](CCCNC(=N)N)NC(=O)[C@H](C)NC(=O)CSC[C@@H](C(N)=O)NC(=O)[C@H](CC(=O)O)NC(=O)[C@H](CCCCC)NC(=O)[C@H](Cc2ccc(-c3ccccc3)cc2)NC(=O)[C@H](CC(C)C)NC(=O)[C@H](C(C)C)NC(=O)[C@H](CCC(N)=O)NC(=O)[C@H](CC(=O)O)NC(=O)[C@H](Cc2c[nH]cn2)NC(=O)[C@H](Cc2ccc(O)cc2)NC1=O [compound 4] ({CH2CO}-AR[Ahp(2)]YHDQVL[Bip][Ahp(2)]DC-NH2; thioether N-13 (inferred); N-terminus and C-terminus assumed), the kon was 533000 M⁻¹ s⁻¹ and the koff was 0.0023 s⁻¹.

With CCCCC[C@@H]1NC(=O)[C@H](Cc2ccc(-c3ccccc3)cc2)NC(=O)[C@H](CC(C)C)NC(=O)[C@H](C(C)C)NC(=O)[C@H](CCC(=O)O)NC(=O)[C@H](CC(=O)O)NC(=O)[C@H](Cc2c[nH]cn2)NC(=O)[C@H](Cc2ccc(O)cc2)NC(=O)[C@H](CCCCC)NC(=O)[C@H](CCCNC(=N)N)NC(=O)[C@H](C)NC(=O)CSC[C@@H](C(N)=O)NC(=O)[C@H](C)NC1=O [compound 27] ({CH2CO}-AR[Ahp(2)]YHDEVL[Bip][Ahp(2)]AC-NH2; thioether N-13 (inferred); N-terminus and C-terminus assumed) the kon was 560000 M⁻¹ s⁻¹ and the koff was 0.0028 s⁻¹.

With CCCCC[C@@H]1NC(=O)[C@H](CCCNC(=N)N)NC(=O)[C@H](C)NC(=O)CSC[C@@H](C(N)=O)NC(=O)[C@H](CC(=O)O)NC(=O)[C@H](CCCCC)NC(=O)[C@H](Cc2ccc(-c3ccccc3)cc2)NC(=O)[C@H](CCO)NC(=O)[C@H](C(C)C)NC(=O)CNC(=O)[C@H](CC(=O)O)NC(=O)[C@H](Cc2c[nH]cn2)NC(=O)[C@H](Cc2ccc(O)cc2)NC1=O [compound 8] ({CH2CO}-AR[Ahp(2)]YHDGV[hSer][Bip][Ahp(2)]DC-NH2; thioether N-13) the Kd was 38.8 nM, the kon was 790000 M⁻¹ s⁻¹ and the koff was 0.0306 s⁻¹.

In the case of CCCCC[C@@H]1NC(=O)[C@H](CCCNC(=N)N)NC(=O)[C@H](C)NC(=O)CSC[C@@H](C(N)=O)NC(=O)[C@H](CC(=O)O)NC(=O)[C@H](CCCCC)NC(=O)[C@H](Cc2ccc(-c3ccccc3)cc2)NC(=O)[C@H](CC(C)C)NC(=O)[C@H](C(C)C)NC(=O)[C@H](CCC(=O)O)NC(=O)[C@H](CC(=O)O)NC(=O)[C@H](Cc2c[nH]cn2)NC(=O)[C@H](Cc2ccc(O)cc2)NC1=O [compound 10] ({CH2CO}-AR[Ahp(2)]YHDEVL[Bip][Ahp(2)]DC-NH2; thioether N-13 (inferred); N-terminus and C-terminus assumed), the kon is reported as 471000 M⁻¹ s⁻¹ and the koff is reported as 0.00223 s⁻¹.

Compound CCCCC[C@@H]1NC(=O)[C@H](Cc2ccnc(N)c2)NC(=O)[C@H](C)NC(=O)CSC[C@@H](C(N)=O)NC(=O)[C@H](CC(=O)O)NC(=O)[C@H](CCCCc2ccccc2)NC(=O)[C@H](Cc2ccc(-c3ccccc3)cc2)NC(=O)[C@H](CC(C)C)NC(=O)[C@H](C(C)C)NC(=O)[C@H](CCC(=O)O)NC(=O)[C@H](CC(=O)O)NC(=O)[C@H](Cc2c[nH]cn2)NC(=O)[C@H](Cc2ccc(O)cc2)NC1=O [compound 34] ({CH2CO}-A[Ala(2-NH2-4-pyridyl)][Ahp(2)]YHDEVL[Bip][Nle(6-Ph)]DC-NH2; thioether N-13) has a Kd of 10.4 nM, a kon of 120000 M⁻¹ s⁻¹ and a koff of 0.0012 s⁻¹.

CCCCC[C@@H]1NC(=O)[C@H](CCCNC(=N)N)NC(=O)[C@H](C)NC(=O)CSC[C@@H](C(N)=O)NC(=O)[C@H](CC(=O)O)NC(=O)[C@H](CCCCC)NC(=O)[C@H](Cc2ccc(-c3ccccc3)cc2)NC(=O)[C@H](CC(C)C)NC(=O)[C@H](C(C)C)NC(=O)[C@H](CCCNC(=N)N)NC(=O)[C@H](CC(=O)O)NC(=O)[C@H](Cc2c[nH]cn2)NC(=O)[C@H](Cc2ccc(O)cc2)NC1=O [compound 11] ({CH2CO}-AR[Ahp(2)]YHDRVL[Bip][Ahp(2)]DC-NH2; thioether N-13) was tested, and the kon was 1.6e+06 M⁻¹ s⁻¹ and the koff was 0.0019 s⁻¹.

Compound CCCCC[C@@H]1NC(=O)[C@H](Cc2ccc(-c3ccccc3)cc2)NC(=O)[C@H](CC(C)C)NC(=O)[C@H](C(C)C)NC(=O)[C@H](CCC(=O)O)NC(=O)[C@H](CC(=O)O)NC(=O)[C@H](Cc2c[nH]cn2)NC(=O)[C@H](Cc2ccc(O)cc2)NC(=O)[C@H](CCCCNC(=O)CCOCCOCCOCCOC)NC(=O)[C@H](CCCNC(=N)N)NC(=O)[C@H](C)NC(=O)CSC[C@@H](C(N)=O)NC(=O)[C@H](CC(=O)O)NC1=O [compound 19] ({CH2CO}-ARK(X1)YHDEVL[Bip][Ahp(2)]DC-NH2; thioether N-13) has a kon of 160000 M⁻¹ s⁻¹ and a koff of 0.0012 s⁻¹.

Work on CCCCC[C@@H]1NC(=O)[C@H](CCCNC(=N)N)NC(=O)[C@H](C)NC(=O)CSC[C@@H](C(N)=O)NC(=O)[C@H](CC(=O)O)NC(=O)[C@H](CCCCC)NC(=O)[C@H](Cc2ccc(-c3ccccc3)cc2)NC(=O)[C@H](CC(C)C)NC(=O)[C@H](C(C)C)NC(=O)[C@H](CCCCNC(=N)N)NC(=O)[C@H](CC(=O)O)NC(=O)[C@H](Cc2c[nH]cn2)NC(=O)[C@H](Cc2ccc(O)cc2)NC1=O [compound 12] ({CH2CO}-AR[Ahp(2)]YHD[hArg]VL[Bip][Ahp(2)]DC-NH2; thioether N-13 (inferred); N-terminus and C-terminus assumed) yielded a kon of 660000 M⁻¹ s⁻¹ and a koff of 0.0015 s⁻¹.

CCCCC[C@@H]1NC(=O)[C@H](CCCNC(=N)N)NC(=O)[C@H](C)NC(=O)CSC[C@@H](C(N)=O)NC(=O)[C@H](CC(=O)O)NC(=O)[C@H](CCCCC)NC(=O)[C@H](Cc2ccc(-c3ccccc3)cc2)NC(=O)[C@H](CCS(C)(=O)=O)NC(=O)[C@H](C(C)C)NC(=O)[C@H](CCCNC(=N)N)NC(=O)[C@H](CC(=O)O)NC(=O)[C@H](Cc2c[nH]cn2)NC(=O)[C@H](Cc2ccc(O)cc2)NC1=O [compound 15] ({CH2CO}-AR[Ahp(2)]YHDRV[Met(O2)][Bip][Ahp(2)]DC-NH2; thioether N-13) gave a Kd of 9.42 nM, a kon of 1.4e+06 M⁻¹ s⁻¹ and a koff of 0.013 s⁻¹.

For CCCCC[C@@H]1NC(=O)[C@H](CCCNC(=N)N(C)C)NC(=O)[C@H](C)NC(=O)CSC[C@@H](C(N)=O)NC(=O)[C@H](CC(=O)O)NC(=O)[C@H](CCCCc2ccccc2)NC(=O)[C@H](Cc2ccc(-c3ccccc3)cc2)NC(=O)[C@H](CC(C)C)NC(=O)[C@H](C(C)C)NC(=O)[C@H](CCC(=O)O)NC(=O)[C@H](CC(=O)O)NC(=O)[C@H](Cc2c[nH]cn2)NC(=O)[C@H](Cc2ccc(O)cc2)NC1=O [compound 32] ({CH2CO}-A[Arg(Me2a)][Ahp(2)]YHDEVL[Bip][Nle(6-Ph)]DC-NH2; thioether N-13), the Kd was 5.6 nM, the kon was 250000 M⁻¹ s⁻¹ and the koff was 0.0014 s⁻¹.
